Laboratory results from publication doi:10.1101/625897v2 (biorxiv, 2019).

Legend:
Experiment in all cases: inside-out patch clamp, Cl- current stimulation
ANO1 (TMEM16A; mTMEM16A) [1] = target: T1, ANO1 (TMEM16A; mTMEM16A) (Mus musculus, UniProt Q8BHY3); format: biochemical; settings: +100 mV, 270 nM Ca2+
T1 sequence (Q8BHY3 1-960): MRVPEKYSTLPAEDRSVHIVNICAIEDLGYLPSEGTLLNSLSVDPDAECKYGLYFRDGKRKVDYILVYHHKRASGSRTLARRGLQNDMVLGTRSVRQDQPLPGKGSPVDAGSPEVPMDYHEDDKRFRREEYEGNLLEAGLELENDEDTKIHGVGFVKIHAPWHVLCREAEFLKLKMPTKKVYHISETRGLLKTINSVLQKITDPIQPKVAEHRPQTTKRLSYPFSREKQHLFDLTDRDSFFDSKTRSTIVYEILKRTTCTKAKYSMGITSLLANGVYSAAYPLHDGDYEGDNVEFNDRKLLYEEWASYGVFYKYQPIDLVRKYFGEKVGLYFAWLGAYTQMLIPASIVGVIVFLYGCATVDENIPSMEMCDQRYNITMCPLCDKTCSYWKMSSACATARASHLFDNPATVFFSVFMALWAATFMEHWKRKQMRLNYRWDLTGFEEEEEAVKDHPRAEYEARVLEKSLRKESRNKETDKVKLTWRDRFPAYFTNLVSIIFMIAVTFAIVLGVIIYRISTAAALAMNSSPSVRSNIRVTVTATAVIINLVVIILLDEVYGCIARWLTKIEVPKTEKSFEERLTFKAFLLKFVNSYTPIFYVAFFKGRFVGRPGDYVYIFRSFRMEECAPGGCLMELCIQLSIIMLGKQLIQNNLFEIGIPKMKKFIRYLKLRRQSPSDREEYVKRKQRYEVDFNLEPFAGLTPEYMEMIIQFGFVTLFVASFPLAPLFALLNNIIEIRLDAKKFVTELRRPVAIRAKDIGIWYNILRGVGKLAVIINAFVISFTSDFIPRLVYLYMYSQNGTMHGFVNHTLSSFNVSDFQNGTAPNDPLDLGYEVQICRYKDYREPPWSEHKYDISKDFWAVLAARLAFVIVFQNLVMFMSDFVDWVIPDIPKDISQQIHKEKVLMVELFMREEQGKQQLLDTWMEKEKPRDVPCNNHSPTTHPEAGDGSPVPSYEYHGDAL

ANO1 (TMEM16A; mTMEM16A) [2] = target: T1, ANO1 (TMEM16A; mTMEM16A); format: cell-based
ANO1 (TMEM16A; mTMEM16A) [3] = target: T1, ANO1 (TMEM16A; mTMEM16A); format: biochemical; settings: +100 mV, 270 nM Ca2+; wild-type reference of the mutant set

## CCCCCCCC(=O)OC[C@H](COP(=O)(O)O[C@H]1[C@H](O)[C@@H](OP(=O)(O)O)[C@H](OP(=O)(O)O)[C@@H](OP(=O)(O)O)[C@H]1O)OC(=O)CCCCCCC [diC8-PI(3,4,5)P3]
ANO1 (TMEM16A; mTMEM16A) [1]
  % current increase at 10 μM: 31 ± 12%

## CCCCCCCC(=O)OC[C@H](COP(=O)(O)O[C@@H]1[C@H](O)[C@H](O)[C@@H](OP(=O)(O)O)[C@H](OP(=O)(O)O)[C@H]1O)OC(=O)CCCCCCC [diC8-PI(4,5)P2]
ANO1 (TMEM16A; mTMEM16A) [2]
  EC50: 1240 nM
ANO1 (TMEM16A; mTMEM16A) [3]
  ΔIPIP2 (% current increase) at 10 μM: 89.9 ± 16.8%
